The values below come from patent publication US9440933B2, “Azole derivative, method for producing same, intermediate compound, and agricultural or horticultural chemical agent and industrial material protecting agent” (KUREHA CORPORATION, priority 2011, dated 2016).

Series [1] relates to wheat. In words: Damage (necrosis) to wheat by seed treatment (pot test). Type of series: in vivo. The conditions noted are these: 2 mg in DMSO applied to wheat seeds 1 g, 12 days after seeding. As to the method:
Damage (necrosis) to wheat was examined in a pot test. An inventive compound 1-2 and a comparative compound (1) were dissolved in DMSO (18 μl) respectively in an amount of 2 mg. The solution thus prepared was applied to wheat seeds 1 g in a vial and 8 seeds were seeded in a 80 cm^2 pot. The plant was grown in green house, as water was supplied from below, and the damage was determined 12 days after seeding.

The test system of series [2] is wheat leaf rust-causing microbe. As to the kind of experiment: Control activity of wheat leaf rust by seed treatment (pot test). The series is classed as in vivo, Puccinia recondita. The conditions noted are these: 2 mg in DMSO applied to wheat seeds 10 g, inoculated 21 days after seeding. As to the method:
Controlling activity to wheat leaf rust was examined in a pot test. […] The solution prepared was applied to wheat seeds 10 g in a vial and 8 wheat seeds were seeded in a 80 cm^2 pot. The seeds were grown in greenhouse, as water was supplied from below; a wheat leaf rust-causing microbe was inoculated 21 days after seeding; and the pot was stored in a constant-humidity box for 2 days. The plant was grown in green house, as water was supplied from below, and the incidence rate was determined and the controlling rate calculated […]. The controlling rate was calculated according to the equation below and used as the wheat leaf rust-controlling rate. Controlling rate=(1−Incidence rate in treated region/Incidence rate in non-treated region)×100(%)

The test system of series [3] is wheat. In words: Damage to wheat (growth inhibition) by seed treatment (pot test). The note with it: 2 mg in DMSO applied to wheat seeds 1 g, 14 to 28 days after seeding, larger index = smaller damage.
Series [4] relates to wheat leaf blight-causing microbe. In words: Antimicrobial activity to wheat leaf blight-causing microbe (PDA plate, hyphal expansion inhibition). The series is classed as cell-based, Septoria tritici. The conditions noted are these: PDA medium, 25° C., 14 days; for inhibition at 50 µg/mL / inhibition at 1.25 µg/mL: 336 h; for inhibition at 50 µg/mL: read-out: Growth inhibition; for inhibition at 1.25 µg/mL: test sample concentration 1.25 mg/L, read-out: hyphal expansion-inhibiting rate. As to the method: In this Test Example, antimicrobial activity of the inventive compounds to wheat leaf blight-causing microbe was determined and compared with that of the comparative compound (1).

The subject of series [5] is wheat leaf rust-causing microbe. In words: Wheat leaf rust-controlling activity (foliar spray, pot test). The series is classed as in vivo, Puccinia recondita.
Series [6] has as its system wheat powdery mildew-causing microbes. In words: Controlling activity to wheat powdery mildew of seed treatment (pot test). Type of series: in vivo, Erysiphe graminis f. sp tritici. The note with it: 2 mg in DMSO applied to wheat seeds 1 g, 14 to 28 days after seeding. In outline:
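Wheat seeds (1 g) coated with 2 mg compound in 18 μl DMSO, sown 8 per pot and grown in a greenhouse under natural powdery mildew pressure with bottom watering. Incidence scored 14–28 days after seeding; controlling rate = (1 − treated/untreated incidence) × 100, plus controlling index.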

Series [7] concerns Wheat fusarium blight-causing microbe (Fusarium graminearum). The series is classed as cell-based. The note with it: 50 mg/L.
In series [8] the test system is Barley loose smut-causing microbe (Ustilago nuda). As to the kind of experiment: Antimicrobial activity to various pathogenic microbes: U.n. The note with it: 50 mg/L.
Procedure: (§1) An inventive compound was dissolved in dimethylsulfoxide 2 ml. The solution 0.6 ml was added to a PDA medium (potato-dextrose-agar medium) 60 ml at around 60° C.
(§2) The plates were cultured at 25° C. for 14 days after inoculation and the diameter of the microbial colony was determined. Hyphal expansion-inhibiting rate was calculated according to the following equation: R=100(dc−dt)/dc (wherein, R: hyphal expansion-inhibiting rate (%), dc: diameter of microbial colony on non-treated flat plate, dt: diameter of microbial colony on chemically-treated flat plate).
(§3) The results thus obtained were evaluated in 5 stages according to the criteria below:
Barley loose smut-causing microbe (Ustilago nuda) U.n
In series [9] the test system is Wheat eye spot-causing microbe (Pseudocercoporella herpotrichoides). In words: Antimicrobial activity to various pathogenic microbes: P.h. The note with it: 50 mg/L.
Procedure: as §1, §2, §3
Wheat eye spot-causing microbe (Pseudocercoporella herpotrichoides) P.h
Series [10] has as its system Rice blast-causing microbe (Pyricularia oryzae). The series is classed as cell-based. The conditions noted are these: 50 mg/L.
The test system of series [11] is Rice bakanae disease-causing microbe (Gibberella fujikuroi). In words: Antimicrobial activity to various pathogenic microbes: G.f. The conditions noted are these: 50 mg/L.
Procedure: as §1
(§4) A flat plate containing a test microbe (wheat leaf blight-causing microbe) cultured separately was punched into pieces with a cork borer having a diameter of 4 mm and the circular plate obtained was placed on the flat plate media containing the chemical described above. The plates were cultured at 25° C. for 14 days after inoculation and the diameter of the microbial colony was determined. Hyphal expansion-inhibiting rate was calculated according to the following equation: R=100(dc−dt)/dc (wherein, R: hyphal expansion-inhibiting rate (%), dc: diameter of microbial colony on non-treated flat plate, dt: diameter of microbial colony on chemically-treated flat plate).
as §3
For series [12], the system named is Cucumber Fusarium wilt-causing microbe (Fusarium oxysporum). In words: Antimicrobial activity to various pathogenic microbes: F.c. The conditions noted are these: 50 mg/L.
Procedure: as §1, §4, §3
Series [13] deals with Barley scald-causing microbe (Rhynchosporium secalis). As to the kind of experiment: Antimicrobial activity to various pathogenic microbes: R.sec. The conditions noted are these: 50 mg/L.
Procedure: as §1, §4
(§5) In this Test Example, the antimicrobial activity of the inventive compounds to various plant disease-causing fungi and industrial material-eroding microorganisms was studied by the method described in Example 1.
as §3
Barley scald-causing microbe (Rhynchosporium secalis) R.sec
Series [14] deals with Gray mold-causing microbe (Botrytis cinerea). As to the kind of experiment: Antimicrobial activity to various pathogenic microbes: B.c. The note with it: 50 mg/L.
Procedure: as §1, §4, §5, §3
Gray mold-causing microbe (Botrytis cinerea) B.c
Series [15] deals with Apple alternaria blotch-causing microbe (Alternaria alternata). In words: Antimicrobial activity to various pathogenic microbes: A.m. The note with it: 50 mg/L.
Procedure: as §1, §4, §5, §3
Apple alternaria blotch-causing microbe (Alternaria alternata) A.m
The subject of series [16] is Sclerotinia rot-causing microbe (Sclerotinia sclerotiorum). In words: Antimicrobial activity to various pathogenic microbes: S.s. The note with it: 50 mg/L.
In series [17] the test system is Wheat glume blotch-causing microbe (Phaeosphaeria nodorum). In words: Antimicrobial activity to various pathogenic microbes: P.n. The conditions noted are these: 50 mg/L.
Procedure: as §1, §4, §5, §3
Wheat glume blotch-causing microbe (Phaeosphaeria nodorum) P.n
Where [18] appears, read: Concentration 25 g/ha, wettable powder sprayed on wheat (Norin No. 61), 9 to 14 days after inoculation.

For the compound `CC1(C)CC[C@H](Cc2ccc(Cl)cc2)[C@@]1(O)Cn1cncn1` (racemic) [Compound (1), (1RS,5SR)-5-(4-chlorobenzyl)-2-dimethyl-1-(1H-1,2,4-triazol-1-ylmethyl)cyclopentanol, reference compound], the “Damage (necrosis)” value in the series on wheat [1] was “necrotic symptom”. Further, the “controlling rate (wheat leaf rust)” value in series [2] was 88%. For the same compound, in the series with wheat [3], the “Damage index Growth inhibition” value is recorded as 0 (80% or more). The inhibition at 50 µg/mL in [4] (Concentration 50 mg/L) is over 80%. Moreover, the inhibition at 1.25 µg/mL in series [4] was 60 to 80%. Besides, the Controlling index in [5] (setting [18]) is 5 (81 to 100); in series [5] (test sample concentration 1 g/ha, wettable powder sprayed on wheat), 4 (61 to 80). In series [6], the “Controlling index Wheat powdery mildew” value is listed as 5 (Controlling rate: 40 or more).
With `COC(=O)[C@]1(C)CC[C@@H](Cc2ccc(Cl)cc2)[C@]1(O)Cn1cncn1` (racemic) [Compound I-2, methyl-(1RS,2RS,3SR)-3-(4-chlorobenzyl)-2-hydroxy-1-methyl-2-(1H-1,2,4-triazol-1-ylmethyl)cyclopentanecarboxylate], the “Damage (necrosis)” value in the series on wheat [1] is on record as “no necrotic symptom”. Moreover, the “Growth inhibition (hyphal expansion-inhibiting rate grade) F.g” value in [7] is recorded as 5 (hyphal expansion-inhibiting rate: 80% or more). Besides, the “Growth inhibition (hyphal expansion-inhibiting rate grade) U.n” value in series [8] is recorded as 5 (hyphal expansion-inhibiting rate: 80% or more). Moreover, the “Growth inhibition (hyphal expansion-inhibiting rate grade) P.h” value in series [9] is listed as 5 (hyphal expansion-inhibiting rate: 80% or more). Besides, the “Growth inhibition (hyphal expansion-inhibiting rate grade) P.o” value in [10] is recorded as 5 (hyphal expansion-inhibiting rate: 80% or more). Further, in series [11], the “Growth inhibition (hyphal expansion-inhibiting rate grade) G.f” value is 5 (hyphal expansion-inhibiting rate: 80% or more). Moreover, the “Growth inhibition (hyphal expansion-inhibiting rate grade) F.c” value in series [12] is on record as 5 (hyphal expansion-inhibiting rate: 80% or more). For the same compound, the “controlling rate (wheat leaf rust)” value in series [2] was found to be 95%. The “Growth inhibition (hyphal expansion-inhibiting rate grade) R.sec” value in [13] was 5 (hyphal expansion-inhibiting rate: 80% or more). The “Damage index Growth inhibition” value in the series with wheat [3] is 1 (60% or more and less than 80%). In addition, the inhibition at 50 µg/mL in series [4] (Concentration 50 mg/L) is over 80%. For the same compound, the inhibition at 1.25 µg/mL in series [4] was at least 80%. The “Growth inhibition (hyphal expansion-inhibiting rate grade) B.c” value in series [14] is listed as 5 (hyphal expansion-inhibiting rate: 80% or more). Besides, in [5] (setting [18]), the Controlling index is 5 (81 to 100). The “Growth inhibition (hyphal expansion-inhibiting rate grade) A.m” value in series [15] is given as 5 (hyphal expansion-inhibiting rate: 80% or more). Moreover, the “Growth inhibition (hyphal expansion-inhibiting rate grade) S.s” value in series [16] is listed as 5 (hyphal expansion-inhibiting rate: 80% or more). Also, in series [17], the “Growth inhibition (hyphal expansion-inhibiting rate grade) P.n” value is reported as 5 (hyphal expansion-inhibiting rate: 80% or more). In series [6], the “Controlling index Wheat powdery mildew” value was 5 (Controlling rate: 40 or more).
With `CNC(=O)[C@]1(C)CC[C@H](Cc2ccc(Cl)cc2)[C@@]1(O)Cn1cncn1` (racemic) [Compound I-148, N-methyl-(1RS,2SR,3RS)-3-(4-chlorobenzyl)-2-hydroxy-1-methyl-2-(1H-1,2,4-triazol-1-ylmethyl)cyclopentane carboxyamide], the “Growth inhibition (hyphal expansion-inhibiting rate grade) F.g” value in series [7] is 5 (hyphal expansion-inhibiting rate: 80% or more). In addition, the “Growth inhibition (hyphal expansion-inhibiting rate grade) U.n” value in series [8] was 5 (hyphal expansion-inhibiting rate: 80% or more). Also, the “Growth inhibition (hyphal expansion-inhibiting rate grade) P.h” value in series [9] is 5 (hyphal expansion-inhibiting rate: 80% or more). The “Growth inhibition (hyphal expansion-inhibiting rate grade) P.o” value in series [10] was 5 (hyphal expansion-inhibiting rate: 80% or more). For the same compound, in series [11], the “Growth inhibition (hyphal expansion-inhibiting rate grade) G.f” value is listed as 5 (hyphal expansion-inhibiting rate: 80% or more). The “Growth inhibition (hyphal expansion-inhibiting rate grade) F.c” value in series [12] is recorded as 5 (hyphal expansion-inhibiting rate: 80% or more). In series [13], the “Growth inhibition (hyphal expansion-inhibiting rate grade) R.sec” value was 5 (hyphal expansion-inhibiting rate: 80% or more). Also, the “Damage index Growth inhibition” value with wheat [3] amounted to 5. Moreover, in series [4] (Concentration 50 mg/L), the Growth inhibition is recorded as 5 (hyphal expansion-inhibiting rate: 80% or more). Besides, the “Growth inhibition (hyphal expansion-inhibiting rate grade) B.c” value in [14] is listed as 5 (hyphal expansion-inhibiting rate: 80% or more). Moreover, in series [5] (setting [18]), the Controlling index was 5 (81 to 100). The “Growth inhibition (hyphal expansion-inhibiting rate grade) A.m” value in [15] is 5 (hyphal expansion-inhibiting rate: 80% or more). For the same compound, in series [16], the “Growth inhibition (hyphal expansion-inhibiting rate grade) S.s” value is recorded as 5 (hyphal expansion-inhibiting rate: 80% or more). The “Growth inhibition (hyphal expansion-inhibiting rate grade) P.n” value in series [17] is listed as 5 (hyphal expansion-inhibiting rate: 80% or more). For the same compound, in [6], the “Controlling index Wheat powdery mildew” value was 5 (Controlling rate: 40 or more).
